{"source": "patent US20210308101A1", "about": "“METHODS OF TREATING FIBROMYALGIA” (Aptinyx Inc., priority 2019, published 2021)", "type_in_all_cases": "in vivo, human", "key": {"[1]": {"system": "subjects with fibromyalgia", "experiment": "Patient Global Impression of Change (PGI-C)", "from_the_text": "As used herein, the “PGI-C” is Patient Global Impression of Change. The PGI-C is a 7-point Likert scale that allows subjects to rate the change in the disease state from study initiation to specific time points during the study or at the end of the study. It provides the subject's impression of overall change.\nThe PGI-C data were collected and analyzed at visits Week 2, Week 4, Week 6, and Follow-up (Week 7). […] The actual values and changes from treatment periods at Week 4 and Week 6 were summarized using descriptive statistics. A frequency distribution was created for each analysis visit based on the collected categorical values. The analysis categorical values stated above were summarized by frequency distributions and p-values using McNemar's test."}, "[2]": {"system": "resting state functional connectivity", "experiment": "rs-fcMRI seed-based region of interest functional connectivity", "from_the_text": "Resting state functional connectivity magnetic resonance imaging (rs-fcMRI) also uses noninvasive techniques to map blood flow in the brain. In rs-fcMRI, neural connections between different areas of the brain are identified by mapping regions of synchronous blood flow fluctuations. Synchronous blood fluctuations are examined to determine the strength of neural connections between different brain regions.\nResting 6-minute scans, with subjects resting comfortably in the scanner with eyes open and fixated on a crosshair, were completed at the beginning of the scan session. Whole brain BOLD rs-fcMRI data were collected following same parameters used for evoked fMRI. Physiological data were also collected simultaneously with rs-fcMRI data, as cardiorespiratory fluctuations are known to influence rs-fcMRI intrinsic connectivity estimation within several brain networks\nIn order to quantify intrinsic brain connectivity, rs-fcMRI data were analyzed with both dual-regression ICA and seed-voxel approaches. These approaches are complementary, as they quantify intrinsic brain connectivity on a network level (dual regression probabilistic ICA) and a more specific region-focused level (seed-voxel).\nResting state functional connectivity MRI data were preprocessed and analyzed using statistical parametric mapping software package Version 12, the CONN functional connectivity toolbox, and the GIFT toolbar, all running on MATLAB Version 9.2 or later. Upon collection of rs-fcMRI data, physiological artifacts were first removed using a custom MATLAB algorithm and slice-time corrected using Functional Magnetic Resonance Imaging of the Brain Software Library software. Preprocessing steps included motion correction, realignment, registration, normalization to standard Montreal Neurological Institute template, and smoothing (full width at half maximum Gaussian kernel of 6 or 8 mm).\nSeed to whole brain functional connectivity analysis was performed using the CONN toolbox, Version 15, running on […]. […] Spheres were created (5 mm radius) around peak voxel coordinates and white matter, CSF, and motion parameters were used as covariates of no interest. Seed-based analyses were also performed using regions of interest assessed with single voxel ^1H-MRS regions showing NYX-2925 effects on Glx level. Data were band pass filtered (0.01 to 0.1 Hz) to remove linear drifts and high frequency noise. First level analysis correlated the time course from the seed to all brain voxels, creating connectivity maps for each seed region. These connectivity maps were passed up to group-level analyses comparing differences in connectivity at the visits of interest in statistical parametric mapping.\nSeveral analyses were conducted with the fMRI resting state and task data. Results were assessed by: 1) a primary analysis, where a finding was deemed significant with a corrected cluster level p<0.05, derived from an uncorrected voxel-wise p<0.001, and 2) an exploratory analysis, where a finding was deemed significant with an uncorrected voxel-wise p<0.005 and having a cluster greater than or equal to 80 contiguous voxels. Results that met significance in the primary analyses had connectivity values extracted and imported into SPSS v25 where paired t-tests were performed to assess for potential outliers contributing to the finding. Remaining data were then correlated with clinical measures using parametric bivariate Pearson correlations. Results were deemed significant at p<0.05.\nSeed-based, region of interest, functional connectivity analyses were performed (n=18) for regions that were used to acquire ^1H-MRS data: dACC, perigenual anterior cingulate cortex (pgACC), right anterior insula cortex, right posterior insula cortex, precuneus, thalamus, and medial prefrontal cortex."}, "[3]": {"system": "visual stimulus-evoked brain activation", "experiment": "fMRI of visual stimulation, BOLD activations", "conditions": "either dose relative to baseline or placebo", "from_the_text": "As used herein, “Functional Magnetic Resonance Imaging of Evoked Pain and Visual Stimulation” refers to the following procedure. During evoked pain and visual stimulation fMRI paradigms, participants were lying in the scanner as they received either pressure stimulation to their calf muscle or they experienced an unpleasant visual stimulus. For both pain and visual stimulation, whole-brain Blood Oxygenation Level Dependent (BOLD) functional images were acquired.\nNeural mechanisms of this multimodal hypersensitivity were assessed using fMRI. Whole brain BOLD functional images were acquired. The visual stimulation task was 3 minutes in duration and consisted of 2 different visual stimuli presented in a block design. The control stimulus was a fixed crosshair centered in the middle of a solid color background, whereas the experimental stimulus was a flashing annulus checkerboard (8 Hz frequency) (see below figure of example of visual stimuli). […]\nSeveral analyses were conducted with the fMRI resting state and task data. Results were assessed by: 1) a primary analysis, where a finding was deemed significant with a corrected cluster level p<0.05, derived from an uncorrected voxel-wise p<0.001, and 2) an exploratory analysis, where a finding was deemed significant with an uncorrected voxel-wise p<0.005 and having a cluster greater than or equal to 80 contiguous voxels. […]"}, "[4]": {"conditions": "exploratory, placebo visit to NYX-2925 200 mg visit"}}, "note": "“Also recorded” adds a separate entry of the source."}
{"smiles": "CC(C)C(=O)N1CCC[C@]12CN([C@H](C(N)=O)[C@@H](C)O)C2=O", "note": "[NYX-2925, (2S, 3R)-3-hydroxy-2-((R)-5-isobutyryl-1-oxo-2,5-diazaspiro[3.4]octan-2-yl)butanamide]", "values": [{"measurement": "Patient Global Impression of Change", "setting": "[1]; post hoc, improved including minimally improved, 20 mg and 200 mg versus placebo", "value": "a larger proportion of subjects had a reduction of severity"}, {"measurement": "Patient Global Impression of Change", "setting": "[1]; traditional definition of improved (very much improved, much improved)", "value": "little, if any, change in severity"}, {"measurement": "connectivity right anterior insula cortex seed - right ventral anterior thalamic nucleus", "setting": "[2]; baseline visit to NYX-2925 200 mg visit, PFWE=0.018", "value": "decreased"}, {"measurement": "connectivity right posterior insula cortex seed - dACC", "setting": "[2]; exploratory analysis, placebo visit to NYX-2925 20 mg visit", "value": "decrease in connectivity"}, {"measurement": "connectivity precuneus - right anterior insula and left dACC", "setting": "[2]; exploratory, baseline visit to NYX-2925 20 mg visit", "value": "decreased"}, {"measurement": "connectivity precuneus - right mid cingulate cortex", "setting": "[2]; exploratory, placebo visit to NYX-2925 20 mg visit", "value": "Decreases in resting state functional connectivity"}, {"measurement": "connectivity precuneus seed - right posterior/mid cingulate cortex", "setting": "[2]; [4]", "value": "decreased"}, {"measurement": "connectivity thalamus seed - right anterior prefrontal cortex and bilateral precuneus", "setting": "[2]; [4]", "value": "decreases in connectivity"}, {"measurement": "functional connectivity dACC seed - right posterior insula cortex", "setting": "[2]; placebo to NYX-2925 20 mg, not meeting cluster level correction significance", "value": "decreased connectivity"}, {"measurement": "functional connectivity pgACC seed - left precuneus/precentral gyrus", "setting": "[2]; placebo visit to NYX-2925 20 mg visit, PFWE<0.00001", "value": "decreased"}, {"measurement": "connectivity medial prefrontal cortex seed - right anterior prefrontal cortex and right mid cingulate cortex", "setting": "[2]; placebo visit to NYX-2925 200 mg visit, PFWE=0.003 and 0.036", "value": "Decreases were also observed"}, {"measurement": "functional connectivity pgACC seed - right inferior frontal gyrus", "setting": "[2]; placebo visit to NYX-2925 200 mg visit, PFWE=0.008", "value": "decreased"}, {"measurement": "connectivity of precuneus seed", "setting": "[2]; primary analyses", "value": "no significant results"}, {"measurement": "connectivity of right posterior insula cortex seed", "setting": "[2]; primary analyses", "value": "no significant findings"}, {"measurement": "connectivity thalamus seed - bilateral cuneus", "setting": "[2]; primary analysis, baseline visit to NYX-2925 200 mg visit, PFWE<0.00001", "value": "significant decrease in resting state connectivity"}, {"measurement": "functional connectivity of dACC seed to right superior temporal gyrus, left premotor/primary somatosensory cortex, right precuneus, left precentral gyrus/premotor cortex", "setting": "[2]; primary analysis, placebo visit to NYX-2925 20 mg visit, PFWE 0.030-0.049", "value": "reduced connectivity; also recorded: decreased functional connectivity"}, {"measurement": "connectivity medial prefrontal cortex seed - right anterior prefrontal/dorsolateral prefrontal cortex", "setting": "[2]; primary, baseline visit to NYX-2925 200 mg visit, PFWE=0.001", "value": "Significant decreases in resting state connectivity"}, {"measurement": "BOLD activation, visual task", "setting": "[3]", "value": "No significant or marginal changes in BOLD activation"}]}
